Experimental findings from US9409952B2, “Peptide-compound cyclization method” (Chugai Seiyaku Kabushiki Kaisha, priority 2011, dated 2016) are described below.

The nature of data set [1]: Metabolic stability in human hepatic microsome. It counts as in vitro ADME. The conditions noted are these: microsomes, pH 7.4; human hepatic microsome, NADPH(+); read-out: CL NADPH(+).
Data set [2] in a line: PAMPA (parallel artificial membrane permeability assay). The data set is classed as in vitro ADME. Particulars: PAMPA; membrane permeation rate (Pe); 50 mM MOPSO buffer pH 6.5 with 5.0% glycocholic acid, 37° C., 18 hours; read-out: iPAMPA Pe. In short, it runs like this:
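Artificial membrane was 10% (w/v) egg lecithin plus 0.5% (w/v) cholesterol in dodecane on a PVDF filter. A 10 mM DMSO stock was added at 0.5% (v/v) to donor buffer (50 mM MOPSO, pH 6.5, 5.0% glycocholic acid). After 18 h at 37 °C, LC/MS or LC/UV gave donor and acceptor levels for Pe.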

Starred links: 1 amine or outer side, 2 acyl side, 3 side chain; linkers in the order of their positions; H or OH if unused. Positions of bridges follow the written chain, without caps; N, C: chain ends. Non-standard residues stand in square brackets, D forms with d. Residues, ends and D or L forms follow the SMILES beside them. *: point of attachment. NMeF = CN[C@@H](Cc1ccccc1)C(=O)O; NMeβAla = CN(CCC(=O)[*:2])[*:1]; NMeL = CN[C@@H](CC(C)C)C(=O)O; NMeV = CN[C@H](C(=O)O)C(C)C; NMeA = CN[C@@H](C)C(=O)O; Piperidide = C1CCN(*)CC1; dNMeA = CN[C@H](C)C(=O)O; Sar = CNCC(=O)O

As to `CC[C@H](C)[C@@H]1NC(=O)CN(C)C(=O)[C@H]([C@@H](C)O)NC(=O)[C@H](CC(C)C)N(C)C(=O)[C@H](Cc2ccccc2)N(C)C(=O)CCN(C)C(=O)C[C@@H](C(=O)N2CCCCC2)NC(=O)[C@H](CC(C)C)N(C)C(=O)[C@H](CC(C)C)N(C)C1=O` [DP-440] ([NMeβAla][NMeF][NMeL]T[Sar]I[NMeL][NMeL]D-Piperidide; lactam N-9), in data set [1], the microsomal CLint at 1 uM is 124 µL/min/mg. Moreover, in data set [2], the Papp at 18 hours, 50 µM worked out at 29 ×10⁻⁶ cm/s.

`CC(C)C[C@@H]1NC(=O)[C@H](Cc2ccccc2)N(C)C(=O)[C@H](CC(C)C)N(C)C(=O)[C@@H](C)N(C)C(=O)C[C@@H](C(=O)N2CCCCC2)NC(=O)[C@H](CC(C)C)N(C)C(=O)[C@H](Cc2ccccc2)N(C)C(=O)[C@H]([C@@H](C)O)NC(=O)[C@H](Cc2ccccc2)N(C)C1=O` [DP-441] ([dNMeA][NMeL][NMeF]L[NMeF]T[NMeF][NMeL]D-Piperidide; lactam N-9): the microsomal CLint at 1 uM in data set [1] stood at 123 µL/min/mg. Also, the Papp at 18 hours, 50 µM in data set [2] was found to be 37 ×10⁻⁶ cm/s.

Regarding `CC(C)C[C@@H]1NC(=O)[C@H](CC(C)C)N(C)C(=O)[C@H](C)N(C)C(=O)C[C@@H](C(=O)N2CCCCC2)NC(=O)[C@H](CC(C)C)N(C)C(=O)[C@H](Cc2ccccc2)N(C)C(=O)[C@H](Cc2ccccc2)N(C)C(=O)[C@H]([C@@H](C)O)NC(=O)[C@H](Cc2ccccc2)N(C)C1=O` [DP-442] ([NMeA][NMeL]L[NMeF]T[NMeF][NMeF][NMeL]D-Piperidide; lactam N-9), the microsomal CLint at 1 uM in data set [1] came to 159 µL/min/mg. Besides, the Papp at 18 hours, 50 µM in data set [2] was 38 ×10⁻⁶ cm/s.

On to `CC(C)C[C@H]1C(=O)N(C)[C@@H](C)C(=O)N[C@H](C(=O)N(C)[C@@H](Cc2ccccc2)C(=O)N[C@@H](C)C(=O)N2CCCCC2)CC(=O)N(C)[C@H](C)C(=O)N(C)[C@@H](C)C(=O)N[C@@H](C)C(=O)N(C)[C@@H](Cc2ccccc2)C(=O)N(C)[C@@H](C)C(=O)N(C)[C@@H](Cc2ccccc2)C(=O)N[C@@H]([C@@H](C)O)C(=O)N(C)[C@@H](C)C(=O)N1C` [DP-443] ([dNMeA][NMeA]A[NMeF][NMeA][NMeF]T[NMeA][NMeL][NMeA]D[NMeF]A-Piperidide; lactam N-11), for which the microsomal CLint at 1 uM in data set [1] was determined as 17 µL/min/mg. The Papp at 18 hours, 50 µM in data set [2] came to 9.1 ×10⁻⁶ cm/s.

Turning to `CC(C)C[C@H]1C(=O)N(C)[C@@H](C)C(=O)N[C@@H]([C@@H](C)O)C(=O)N(C)[C@@H](C)C(=O)N(C)[C@@H](Cc2ccccc2)C(=O)N(C)[C@@H](C)C(=O)N[C@@H](C)C(=O)N(C)[C@@H](C)C(=O)N(C)[C@@H](C)C(=O)N[C@H](C(=O)N(C)[C@@H](Cc2ccccc2)C(=O)N[C@@H](C)C(=O)N2CCCCC2)CC(=O)N(C)[C@H](C)C(=O)N1C` [DP-444] ([dNMeA][NMeL][NMeA]T[NMeA][NMeF][NMeA]A[NMeA][NMeA]D[NMeF]A-Piperidide; lactam N-11), the microsomal CLint at 1 uM in data set [1] was 3 µL/min/mg. Besides, the Papp at 18 hours, 50 µM in data set [2] turned out to be 0.72 ×10⁻⁶ cm/s.

As for `CC(C)C[C@H]1C(=O)N(C)[C@@H](C)C(=O)N(C)[C@@H](Cc2ccccc2)C(=O)N[C@@H]([C@@H](C)O)C(=O)N(C)[C@@H](C)C(=O)N(C)[C@@H](Cc2ccccc2)C(=O)N(C)[C@@H](C)C(=O)N[C@H](C(=O)N(C)[C@@H](Cc2ccccc2)C(=O)N[C@@H](C)C(=O)N2CCCCC2)CC(=O)N(C)[C@@H](C)C(=O)N[C@@H](C)C(=O)N(C)[C@@H](C)C(=O)N1C` [DP-445] ([NMeA]A[NMeA][NMeL][NMeA][NMeF]T[NMeA][NMeF][NMeA]D[NMeF]A-Piperidide; lactam N-11), the microsomal CLint at 1 uM in data set [1] stood at 14 µL/min/mg. Also, the Papp at 18 hours, 50 µM in data set [2] was found to be 11 ×10⁻⁶ cm/s.

On to `CC(C)C[C@@H]1NC(=O)[C@H](CC(C)C)N(C)C(=O)CCN(C)C(=O)C[C@@H](C(=O)N(C)[C@@H](Cc2ccccc2)C(=O)N[C@@H](C)C(=O)N2CCCCC2)NC(=O)[C@H](C)N(C)C(=O)[C@H]([C@@H](C)O)NC(=O)[C@H](Cc2ccccc2)NC(=O)[C@H](CC(C)C)N(C)C(=O)CNC(=O)[C@H](Cc2ccccc2)N(C)C1=O` [DP-446] ([NMeβAla][NMeL]L[NMeF]G[NMeL]FT[NMeA]D[NMeF]A-Piperidide; lactam N-10), for which the microsomal CLint at 1 uM in data set [1] is 104 µL/min/mg. Besides, in data set [2], the Papp at 18 hours, 50 µM turned out to be 40 ×10⁻⁶ cm/s.

Consider `CC[C@H](C)[C@@H]1NC(=O)[C@H](CC(C)C)N(C)C(=O)[C@H](C(C)C)N(C)C(=O)CCN(C)C(=O)C[C@@H](C(=O)N(C)[C@@H](Cc2ccccc2)C(=O)N[C@@H](C)C(=O)N2CCCCC2)NC(=O)[C@H]([C@@H](C)O)NC(=O)[C@H](Cc2ccccc2)N(C)C(=O)[C@H](C)N(C)C(=O)[C@H](CC(C)C)NC(=O)[C@H](C(C)C)N(C)C1=O` [DP-447] ([NMeβAla][NMeV][NMeL]I[NMeV]L[NMeA][NMeF]TD[NMeF]A-Piperidide; lactam N-10), for which the microsomal CLint at 1 uM in data set [1] is 159 µL/min/mg. Further, the Papp at 18 hours, 50 µM in data set [2] turned out to be 33 ×10⁻⁶ cm/s.

`CC(C)C[C@H]1C(=O)N(C)[C@@H](C)C(=O)N[C@@H](C(C)C)C(=O)N[C@H](C(=O)N(C)[C@@H](Cc2ccccc2)C(=O)N[C@@H](C)C(=O)N2CCCCC2)CC(=O)N(C)CCC(=O)N(C)[C@@H](C(C)C)C(=O)N(C)[C@@H](C)C(=O)N[C@@H](Cc2ccccc2)C(=O)N[C@@H]([C@@H](C)O)C(=O)N(C)[C@@H](C)C(=O)N1C` [DP-448] ([NMeβAla][NMeV][NMeA]FT[NMeA][NMeL][NMeA]VD[NMeF]A-Piperidide; lactam N-10): in data set [1], the microsomal CLint at 1 uM is 27 µL/min/mg. Besides, the Papp at 18 hours, 50 µM in data set [2] turned out to be 6.2 ×10⁻⁶ cm/s.

Regarding `CC(C)C[C@H]1C(=O)N[C@H](C(=O)N(C)[C@@H](Cc2ccccc2)C(=O)N[C@@H](C)C(=O)N2CCCCC2)CC(=O)N(C)CCC(=O)N(C)[C@@H](C)C(=O)N[C@@H](C(C)C)C(=O)N(C)[C@@H](C(C)C)C(=O)N(C)[C@@H](Cc2ccccc2)C(=O)N(C)CC(=O)N[C@@H]([C@@H](C)O)C(=O)N(C)[C@@H](C)C(=O)N1C` [DP-449] ([NMeβAla][NMeA]V[NMeV][NMeF][Sar]T[NMeA][NMeL]D[NMeF]A-Piperidide; lactam N-10), the microsomal CLint at 1 uM in data set [1] is 6 µL/min/mg. Besides, in data set [2], the Papp at 18 hours, 50 µM stood at 6 ×10⁻⁶ cm/s.

On to `CC(C)[C@@H]1NC(=O)[C@H](C)N(C)C(=O)[C@H](C(C)C)N(C)C(=O)CCN(C)C(=O)C[C@@H](C(=O)N(C)[C@@H](Cc2ccccc2)C(=O)N(C)[C@@H](Cc2ccccc2)C(=O)N[C@@H](C)C(=O)N2CCCCC2)NC(=O)[C@H](C)N(C)C(=O)[C@H](C)N(C)C(=O)[C@H]([C@@H](C)O)NC(=O)[C@H](C)N(C)C(=O)[C@H](Cc2ccccc2)N(C)C1=O` [DP-450] ([NMeβAla][NMeV][NMeA]V[NMeF][NMeA]T[NMeA][NMeA]D[NMeF][NMeF]A-Piperidide; lactam N-10), for which the microsomal CLint at 1 uM in data set [1] was 17 µL/min/mg. Moreover, the Papp at 18 hours, 50 µM in data set [2] was found to be 2.3 ×10⁻⁶ cm/s.

Take `CC(C)C[C@@H]1NC(=O)[C@H](CC(C)C)N(C)C(=O)[C@H](CC(C)C)N(C)C(=O)[C@@H](C)N(C)C(=O)C[C@@H](C(=O)N(C)[C@@H](Cc2ccccc2)C(=O)N[C@@H](C)C(=O)N2CCCCC2)NC(=O)[C@H](CC(C)C)N(C)C(=O)[C@H](Cc2ccccc2)NC(=O)[C@H](Cc2ccccc2)N(C)C(=O)[C@H](C)NC(=O)[C@H]([C@@H](C)O)NC1=O` [DP-451] ([dNMeA][NMeL][NMeL]LTA[NMeF]F[NMeL]D[NMeF]A-Piperidide; lactam N-10): in data set [1], the microsomal CLint at 1 uM stood at 14 µL/min/mg. In addition, in data set [2], the Papp at 18 hours, 50 µM was determined as 35 ×10⁻⁶ cm/s.

Take `CC(C)C[C@H]1C(=O)NCC(=O)N[C@@H]([C@@H](C)O)C(=O)N(C)[C@@H](C(C)C)C(=O)N[C@@H](Cc2ccccc2)C(=O)N[C@H](C(=O)N(C)[C@@H](Cc2ccccc2)C(=O)N(C)[C@@H](Cc2ccccc2)C(=O)N[C@@H](C)C(=O)N2CCCCC2)CC(=O)N(C)[C@H](C)C(=O)N(C)[C@@H](C)C(=O)N[C@@H](C(C)C)C(=O)N(C)[C@@H](Cc2ccccc2)C(=O)N1C` [DP-452] ([dNMeA][NMeA]V[NMeF][NMeL]GT[NMeV]FD[NMeF][NMeF]A-Piperidide; lactam N-10): in data set [1], the microsomal CLint at 1 uM came to 21 µL/min/mg. The Papp at 18 hours, 50 µM in data set [2] came out at 22 ×10⁻⁶ cm/s.

Take `CC[C@H](C)[C@@H]1NC(=O)[C@H](C)N(C)C(=O)[C@H]([C@@H](C)O)NC(=O)[C@H](CC(C)C)N(C)C(=O)[C@H](Cc2ccccc2)NC(=O)[C@H](C(C)C)N(C)C(=O)[C@@H](C)N(C)C(=O)C[C@@H](C(=O)N(C)[C@@H](Cc2ccccc2)C(=O)N[C@@H](C)C(=O)N2CCCCC2)NC(=O)[C@H](C)N(C)C(=O)[C@H](CC(C)C)N(C)C1=O` [DP-453] ([dNMeA][NMeV]F[NMeL]T[NMeA]I[NMeL][NMeA]D[NMeF]A-Piperidide; lactam N-10): in data set [1], the microsomal CLint at 1 uM stood at 64 µL/min/mg. Besides, the Papp at 18 hours, 50 µM in data set [2] was determined as 25 ×10⁻⁶ cm/s.

Turning to `CC[C@H](C)[C@@H]1NC(=O)[C@H](C(C)C)N(C)C(=O)[C@H](CC(C)C)N(C)C(=O)[C@H](Cc2ccccc2)NC(=O)[C@@H](C)N(C)C(=O)C[C@@H](C(=O)N(C)[C@@H](Cc2ccccc2)C(=O)N(C)[C@@H](Cc2ccccc2)C(=O)N[C@@H](C)C(=O)N2CCCCC2)NC(=O)[C@H](C)N(C)C(=O)[C@H]([C@@H](C)O)NC(=O)[C@H](CC(C)C)N(C)C(=O)CN(C)C1=O` [DP-454] ([dNMeA]F[NMeL][NMeV]I[Sar][NMeL]T[NMeA]D[NMeF][NMeF]A-Piperidide; lactam N-10), the microsomal CLint at 1 uM in data set [1] was found to be 50 µL/min/mg. In addition, the Papp at 18 hours, 50 µM in data set [2] stood at 14 ×10⁻⁶ cm/s.

On to `CC[C@H](C)[C@@H]1NC(=O)[C@H](C)N(C)C(=O)[C@H](Cc2ccccc2)N(C)C(=O)[C@@H](C)N(C)C(=O)C[C@@H](C(=O)N(C)[C@@H](Cc2ccccc2)C(=O)N(C)[C@@H](Cc2ccccc2)C(=O)N[C@@H](C)C(=O)N2CCCCC2)NC(=O)[C@H](C)N(C)C(=O)[C@H]([C@@H](C)O)NC(=O)[C@H](C)N(C)C(=O)[C@H](CC(C)C)N(C)C(=O)[C@H](C)N(C)C1=O` [DP-455] ([dNMeA][NMeF][NMeA]I[NMeA][NMeL][NMeA]T[NMeA]D[NMeF][NMeF]A-Piperidide; lactam N-10), for which the microsomal CLint at 1 uM in data set [1] worked out at 17 µL/min/mg. Further, in data set [2], the Papp at 18 hours, 50 µM is 15 ×10⁻⁶ cm/s.
